Laboratory results taken from US20240398899A1 (priority 2021, published 2024).

What was measured:
Experiment in all cases: Alzheimer's biomarker multiplex analysis, scopolamine-damaged SH-SY5Y
Assay type in all cases: cell-based, human
Details in all cases: Scopolamine (4 mM)
b-NGF = test system: b-NGF
Experimental: (§1) After overnight incubation as in the previous examples, cells were treated with recombinant lectin protein having SEQ ID NO: 1 at different concentrations ranging from 0.001 μg/ml-1 μg/ml for 24 h for Parkinson disease and 0.01 μg/ml-25 μg/ml for 24 h for Alzheimer's disease. • Parkinson Disease: After 24 h of pre-treatment with recombinant lectin protein having SEQ ID NO: 1, cells were exposed (MPP+) for another 24 h. Cells treated with MPP+Iodide were included as Control. […] The cells treated with Galantamine were included as positive Control.
(§2) The levels of markers were determined by multiplex analysis as: Cell culture supernatants were diluted (1:2) with Calibrator Diluent. 50 μl of standard or sample was added per well. 50 μl of the microparticle cocktail was added to each well of the microplate and covered with a foil plate sealer. The plate was incubated for 2 hours at room temperature on a horizontal orbital microplate shaker. The plate was washed using a magnetic device designed to accommodate a microplate. Washing was done by applying the magnet to the bottom of the microplate, allowing 1 minute before removing the liquid, filling each well with wash buffer (100 μl) and allowing 1 minute before removing the liquid again. 50 μl of diluted Biotin-Antibody Cocktail was added to each well. Covered the plate with a foil plate sealer and incubated for 1 hour at room temperature on the shaker. Repeated the wash step. 50 μl of diluted Streptavidin-PE was added to each well. The plate was securely covered with a foil plate sealer and incubated for 30 minutes at room temperature on the shaker. Repeated the wash step. The microparticles were resuspended by adding 100 μl of Wash Buffer to each well. The plate was incubated for 2 minutes on the shaker and read within 90 minutes using Magpix® multiplex machine. Levels of biomarkers for Parkinson's and Alzheimer's disease were estimated using Magpix® multiplex machine.
(§3) For Alzheimer's disease the percent modulation in each sample was determined as follows: […]

RAGE = test system: RAGE
Experimental: as §1, §2, §3

MPO = test system: MPO
Experimental: as §1, §2, §3

COc1ccc2c3c1O[C@H]1C[C@@H](O)C=C[C@@]31CCN(C)C2 [Galantamine, reference compound]
% Change of Biomarkers markers (wrt Control) b-NGF (b-NGF; 1 μM): 9.1%
% Change of Biomarkers markers (wrt Control) b-NGF (b-NGF; 10 μM): 0%
% Change of Biomarkers markers (wrt Control) b-NGF (b-NGF; 100 μM): −9%
% Change of Biomarkers markers (wrt Control) RAGE (RAGE; 1 μM): 0%
% Change of Biomarkers markers (wrt Control) RAGE (RAGE; 10 μM): 0%
% Change of Biomarkers markers (wrt Control) RAGE (RAGE; 100 μM): −38.7%
% Change of Biomarkers markers (wrt Control) MPO (MPO; 1 μM): −64%
% Change of Biomarkers markers (wrt Control) MPO (MPO; 10 μM): −31.2%
% Change of Biomarkers markers (wrt Control) MPO (MPO; 100 μM): −45.9%
